According to US11731933B2, “Device and method for the desalination of water by means of thermal deionisation and liquid-phase ion extraction liquid” (ADIONICS, priority 2015, dated 2023):
In brackets after ≈: the same amount, converted by molar mass. Several values for one entry are separate records, joined by “and”; a condition that tells them apart may be missing. Equal entries are not always repeated. Where two headings read alike, the source gives them in different places.

Legend:
[1] = Solubility in water (UV-visible spectrometry); type: physicochemical; conditions: for solubility: water
From the text: The hydrophobicity or solubility of a compound can be measured by standard methods and in particular by UV-visible spectrometry.

pKa in water at 25° C. = type: physicochemical
Protocol: The pKa (or acid constant) is defined as pKa=−log10(Ka), where Ka is the acid dissociation constant which is measured in a standard manner for such pKa. The recommended standard measurement method for high, basic pKa is preferably that described by Popov and al, IUPAC—Guidelines for NMR measurements for determination of high and low pKa Pure Apl. Chem., Vol. 78, No. 3, pp. 663-675, 2006.

[2] = NaCl extraction from 0.2M NaCl water by ASM/CEM composition, ion chromatography of treated water; conditions: ASM: 3TFMPhOH; CEM 0.2M; NaCl 0.2M water
Protocol: To 3 mL of 3-(trifluoromethyl)phenol, was added 217 mg of Dibenzo-18-crown-6 in order to obtain a formulation with 0.2 mole/L of DB18C6. This sealed formulation was then orbitally stirred at 500 rpm overnight after 1 mL of distilled water was added twice to allow water saturation of the whole.
The next morning, an aqueous 0.2 mol/L NaCl solution was prepared from twice distilled water, while the formulation that was stirred overnight was allowed to stand for decantation. A clear decantation of the two colorless phases is obtained in a few minutes. 3 mL of the organic extraction solution is then removed and transferred to a flask containing 3 mL of this salt water containing 0.2 M NaCl, then the flask is sealed and orbitally stirred (usually 500 rpm), for 3 hours and at room temperature. It is verified that droplets of the order of 1-2 mm are present in quantity at the selected stirring speed (400 to 900 rpm).
After stirring for 2 hours, stirring is stopped and the whole is left to stand for decantation for at least 10 minutes until the two phases are completely separated. The upper aqueous phase is then removed and then stirred and diluted for analysis of its salinity by a Metrohm Ion Chromatography Incorporating a suitable cation analysis column and a suitable anion analysis column. Similarly, the initial aqueous solution of 0.2M NaCl is also analyzed by this ion chromatography equipment to determine its relative concentration of sodium and chlorides. […]

[3] = methanol; cited from earlier work
[4] = methanol, published complexing constants, cited from earlier work
Log P = type: physicochemical; conditions: for logP: Exp
[5] = NaCl extraction from 0.2M NaCl water by ASM/CEM composition, ion chromatography of treated water; conditions: dichloromethane instead of 3TFMPhOH
[6] = NaCl extraction from 0.4M NaCl water by ASM + Calix[4]Est in chloroform (Example 11)
Protocol: The extraction composition is obtained by solubilizing an amount of 4-tert-butyl Calix[4]arene tetraethyl Ester (CAS No. 97600-39-0) and ASM in chloroform CHCl3 to obtain a final concentration after solubilization of the CEM and ASM of 0.3 mol/L for Calix[4]Est and of 0.3 mol/L for ASM, respectively. These sealed formulations were then orbitally stirred at 500 rpm for 2 hours after adding an equivalent volume of twice distilled water to allow water saturation of the entire formulation and control of pH output (pH=7). The extraction composition is then put to stand to settle. All the compositions tested are stable and rapidly decanted (a few minutes at the most).
A 0.4 mol/L NaCl aqueous solution was prepared from twice distilled water.
The organic extraction composition is then slightly heated to promote solubilization of the compounds by hot air gun (temperature of about 50 to 60° C.) for a few seconds (10 to 30 seconds) until a clear solution is obtained.
3 mL of the organic extraction composition is then removed from the lower phase of the settled two-phase mixture and transferred to a vial containing 3 mL of salt water at 0.4 M NaCl and then the flask is sealed and orbitally stirred (at 500 revolutions per minute), for 2 hours at room temperature (RT), that is to say between 20 and 25° C. In the case of extraction at 60° C., magnetic stirring (at 500 revolutions per minute), for 2 hours, is carried out with indirect heating in a metal mold on a heating plate. It is verified that droplets of the order of 1-2 mm are present during these agitations in order to be certain to achieve equilibrium in the NaCl distribution between the two liquid phases at the end of stirring. The appearance of the organic and aqueous phases is clear and colorless or slightly cloudy.
After stirring for 2 hours, stirring is stopped and the solution is put to stand to settle within 10 minutes, at least until the two phases have completely separated off, at the temperature of the test. The upper aqueous phase is then removed and then stirred and diluted for analysis of its salinity by a Metrohm Ion Chromatograph incorporating a suitable cation analysis column and a suitable anion analysis column. Similarly, the initial aqueous solution of NaCl at 0.4M is also analyzed by this ion chromatograph to determine its relative molar concentration in sodium and in chlorides. AN extractions and analyzes were duplicated.

[7] = RT, CEM 0.3 Mol/L, ASM 0.3 Mol/L in CHCl3, 0.4 M NaCl

Compound	pKa (pKa in water at 25° C.)	Extraction rate at 23° C., Cl− [2]	Extraction rate at 23° C., Na+ [2]	Extraction rate at 23° C., mean NaCl [2]	Solubility in water [1]	Log K(K+, MeOH, 25° C.) [3]	Log K(Na+, MeOH, 25° C.) [4]	further results
OCc1cc(C(F)(F)C(F)(F)C(F)(F)F)cc(C(F)(F)C(F)(F)C(F)(F)F)c1 [ASM 6, [3,5-(Perfluoropropyl)phenyl]methanol]	14.2	–	–	–	–	–	–	solubility [1]: < 70 µM
C1CCC2OCCOCCOC3CCCCC3OCCOCCOC2C1 (stereo not drawn) [DC18C6, Dicyclohexano-1,4,7,10,13,16-hexaoxacyclooctadecane]	–	30.3%	29.1%	29.7%	36 mmol/L (≈ 13400 µg/mL)	5.97	4.27	–
C1CCC2OCCN3CCOCCOCCN(CCOC2C1)CCOC1CCCCC1OCC3 (stereo not drawn) [DC[2.2.2], 5,6,14,15-DiCyclohexano-4,7,13,16,21,24-hexaoxa-1,10-diazabicyclo[8.8.8] hexacosane]	–	–	–	–	3 mmol/L (≈ 1450 µg/mL)	6.92	6.02	–
Oc1cccc(C(F)(F)F)c1 [ASM 1, 3-(Trifluoromethyl)phenol]	8.68	–	–	–	–	–	–	Log P (Log P): 2.95
OCc1cccc(C(F)(F)C(F)(F)C(F)(F)C(F)(F)F)c1 [ASM 5, [3-(Perfluorobutyl)phenyl]methanol]	14.7	–	–	–	< 0.077 mmol/L	–	–	solubility [1]: < 77 µM
c1ccc2c(c1)OCCN1CCOCCOCCN(CCO2)CCOc2ccccc2OCC1 [DB[2.2.2], 5,6,14,15-DiBenzo-4,7,13,16,21,24-hexaoxa-1,10-diazabicyclo[8.8.8] hexacosane]	–	–	–	–	2.5 mmol/L (≈ 1180 µg/mL)	8.74	7.60	–
OCc1cccc(C(F)(F)F)c1 [ASM 2, [3-(Trifluoromethyl)phenyl]methanol]	14.7	–	–	–	32 mmol/L (≈ 5640 µg/mL)	–	–	–
OCc1cc(C(F)(F)C(F)(F)C(F)(F)C(F)(F)F)cc(C(F)(F)C(F)(F)C(F)(F)C(F)(F)F)c1	14	–	–	–	–	–	–	solubility [1]: 0.5 µM (≈ 0.272 µg/mL)
OCc1cc(C(F)(F)F)c(C(F)(F)F)c(C(F)(F)F)c1	13.6	–	–	–	–	–	–	solubility ([1]; read-out: Solubility in water): 390 µM (≈ 122 µg/mL)
c1ccc2c(c1)OCCOCCOCCOc1ccccc1OCCOCCO2 [DB21C7, 6,7,9,10,12,13,20,21,23,24-Decahydrodibenzo[b,k][1,4,7,10,13,16,19] heptaoxacyclohenicosine]	–	20.7%	9.4%	15.2%	–	4.19	2.4	–
c1ccc2c(c1)OCCOCCOCCOc1ccccc1OCCOCCOCCO2 [DB24C8, 6,7,9,10,12,13,20,21,23,24,26,27-Dodecahydrodibenzo[b,n][1,4,7,10,13,16,19,22] octaoxacyclotetracosine]	–	37.1%	35.5%	36.3%	–	3.61	2.25 and 2.35	logP (Log P): 2.11
c1ccc2c(c1)OCCOCCOc1ccccc1OCCOCCO2 [DB18C6, Dibenzo[b,k]-1,4,7,10,13,16-hexaoxacyclooctadecane]	–	38.8%	30.8%	34.6%	1.1 mmol/L (≈ 396 µg/mL)	5.12	4.36-4.49	logP (Log P): 2.2; NaCl extraction with the ASM replaced by dichloromethane [5]: ≤ 1.6%
c1ccc2c(c1)OCCOCCOCCOCCO2 [B15C5, Benzo[b]-1,4,7,10,13-pentaoxa-cyclopentadecane]	–	12.5%	17.2%	14.8%	–	3.93	3.03	logP (Log P): 0.91
C1CCC2OCCOCCOCCOCCOC2C1 (stereo not drawn) [C15C5, Perhydrobenzo[b]-1,4,7,10,′3-pentaoxacyclopentadecane]	–	30.7%	21.0%	26.0%	–	3.96	3.71-3.9	–
OCc1cc(C(F)(F)F)cc(C(F)(F)F)c1 [ASM 3, [3,5-Bis(Trifluoromethyl)phenyl]methanol]	14.7	–	–	–	–	–	–	NaCl - 20° C. % ext (average) ([6]; 20° C., average molar extraction): 7.9%; Mol % Cl- extracted from the water to be treated ([6]; 60° C., CEM 0.3 Mol/L, ASM 0.3 Mol/L in CHCl3, 0.4 M NaCl): not detected; NaCl - 60° C. % ext (average) ([6]; 60° C., average molar extraction): 0.0%; Mol % Cl- extracted from the water to be treated [6, 7]: 8.2% and 8.8%; Mol % Na+ extracted from the water to be treated [6, 7]: 6.8% and 7.6%; Δ % ext ([6]; difference 20° C. minus 60° C.): 7.9%; solubility ([1]; read-out: Solubility in water): 2290 µM (≈ 559 µg/mL)
4-tert-Butylcalix[4]arene-O,O′,O″,O′′′- tetraacetic Acid Tetraethyl Ester [Calix[4]Est]	–	77%	75%	76%	< 1.10^−6 mMole/L	–	5.0	Log K(Na+, MeOH, 25° C.) ([4]; listed as Calix4Est): 5.0-5.7
